# Measurements taken from patent publication US9695155B2, “Herbicidal substituted pyrimidinyloxy benzene compounds” (E. I. DU PONT DE NEMOURS AND COMPANY, priority 2013, dated 2017).
# Key:
# kochia = experiment: Test D preemergence; type: in vivo, Kochia scoparia; conditions: Bassia scoparia, pre-emergence; for pest or weed control at 16 g/ha: 16 g ai/ha, scale 0 (no effect) to 100 (complete control), read-out: Plant response rating, Kochia; for pest or weed control at 31 g/ha: 31 g ai/ha; for pest or weed control at 31 g/ha / pest or weed control at 62 g/ha / pest or weed control at 125 g/ha: scale 0-100, read-out: Plant response rating, Kochia; for pest or weed control at 62 g/ha: 62 g ai/ha; for pest or weed control at 125 g/ha: 125 g ai/ha
# Outline: (§1)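 Values are 0–100 visual control ratings (0 none, 100 complete) given 7–21 days after application. Soil for preemergence was silt loam; postemergence plants stood 2–18 cm tall.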
# chamomile [1] = experiment: Test D postemergence; type: in vivo, Matricaria inodora; conditions: Tripleurospermum inodorum, post-emergence; for pest or weed control at 16 g/ha: 16 g ai/ha, scale 0-100, read-out: Plant response rating, Chamomile; for pest or weed control at 31 g/ha: 31 g ai/ha; for pest or weed control at 31 g/ha / pest or weed control at 62 g/ha / pest or weed control at 125 g/ha: scale 0 to 100 (0 no effect, 100 complete control), read-out: Plant response rating, Chamomile; for pest or weed control at 62 g/ha: 62 g ai/ha; for pest or weed control at 125 g/ha: 125 g ai/ha
# Outline: as §1
# green foxtail = experiment: Test D postemergence; type: in vivo, Setaria viridis; conditions: Setaria viridis, post-emergence; for pest or weed control at 16 g/ha: 16 g ai/ha, scale 0-100, read-out: Plant response rating, Foxtail, Green; for pest or weed control at 31 g/ha: 31 g ai/ha; for pest or weed control at 31 g/ha / pest or weed control at 62 g/ha / pest or weed control at 125 g/ha: scale 0 to 100 (0 no effect, 100 complete control), read-out: Plant response rating, Foxtail, Green; for pest or weed control at 62 g/ha: 62 g ai/ha; for pest or weed control at 125 g/ha: 125 g ai/ha
# Outline: as §1
# windgrass = experiment: Test D preemergence; type: in vivo, Apera spica-venti; conditions: Apera spica-venti, pre-emergence; for pest or weed control at 16 g/ha: 16 g ai/ha; for pest or weed control at 16 g/ha / pest or weed control at 31 g/ha: scale 0 (no effect) to 100 (complete control), read-out: Plant response rating, Windgrass; for pest or weed control at 31 g/ha: 31 g ai/ha; for pest or weed control at 62 g/ha: 62 g ai/ha; for pest or weed control at 62 g/ha / pest or weed control at 125 g/ha: scale 0-100, read-out: Plant response rating, Windgrass; for pest or weed control at 125 g/ha: 125 g ai/ha
# Outline: as §1
# field poppy = experiment: Test D preemergence; type: in vivo, Papaver rhoeas; conditions: Papaver rhoeas, pre-emergence; for pest or weed control at 16 g/ha: 16 g ai/ha, scale 0 (no effect) to 100 (complete control), read-out: Plant response rating, Field Poppy; for pest or weed control at 31 g/ha: 31 g ai/ha; for pest or weed control at 31 g/ha / pest or weed control at 62 g/ha / pest or weed control at 125 g/ha: scale 0-100, read-out: Plant response rating, Field Poppy; for pest or weed control at 62 g/ha: 62 g ai/ha; for pest or weed control at 125 g/ha: 125 g ai/ha
# Outline: as §1
# chamomile [2] = experiment: Test D preemergence; type: in vivo, Matricaria inodora; conditions: Tripleurospermum inodorum, pre-emergence; for pest or weed control at 16 g/ha: 16 g ai/ha, scale 0 (no effect) to 100 (complete control), read-out: Plant response rating, Chamomile; for pest or weed control at 31 g/ha: 31 g ai/ha; for pest or weed control at 31 g/ha / pest or weed control at 62 g/ha / pest or weed control at 125 g/ha: scale 0-100, read-out: Plant response rating, Chamomile; for pest or weed control at 62 g/ha: 62 g ai/ha; for pest or weed control at 125 g/ha: 125 g ai/ha
# Outline: as §1
# field violet = experiment: Test D preemergence; type: in vivo, Viola arvensis; conditions: Viola arvensis, pre-emergence; for pest or weed control at 16 g/ha: 16 g ai/ha, scale 0 (no effect) to 100 (complete control), read-out: Plant response rating, Field Violet; for pest or weed control at 62 g/ha: 62 g ai/ha; for pest or weed control at 125 g/ha: 125 g ai/ha
# Outline: as §1
# galium = experiment: Test D preemergence; type: in vivo, Galium aparine; conditions: Galium, pre-emergence; for pest or weed control at 16 g/ha: 16 g ai/ha, scale 0 (no effect) to 100 (complete control), read-out: Plant response rating, Galium; for pest or weed control at 31 g/ha: 31 g ai/ha; for pest or weed control at 31 g/ha / pest or weed control at 62 g/ha / pest or weed control at 125 g/ha: scale 0-100, read-out: Plant response rating, Galium; for pest or weed control at 62 g/ha: 62 g ai/ha; for pest or weed control at 125 g/ha: 125 g ai/ha
# Outline: as §1
# wild oat = experiment: Test D preemergence; type: in vivo, Avena fatua; conditions: Avena fatua, pre-emergence; for pest or weed control at 16 g/ha: 16 g ai/ha, scale 0 (no effect) to 100 (complete control), read-out: Plant response rating, Oat, Wild; for pest or weed control at 31 g/ha: 31 g ai/ha; for pest or weed control at 31 g/ha / pest or weed control at 62 g/ha / pest or weed control at 125 g/ha: scale 0-100, read-out: Plant response rating, Oat, Wild; for pest or weed control at 62 g/ha: 62 g ai/ha; for pest or weed control at 125 g/ha: 125 g ai/ha
# Outline: as §1
# winter wheat = experiment: Test D postemergence; type: in vivo, Triticum aestivum; conditions: Triticum aestivum, post-emergence; for plant injury at 16 g/ha: 16 g ai/ha, scale 0-100, read-out: Plant response rating, Wheat, Winter; for plant injury at 31 g/ha: 31 g ai/ha; for plant injury at 31 g/ha / plant injury at 62 g/ha / plant injury at 125 g/ha: scale 0 to 100 (0 no effect, 100 complete control), read-out: Plant response rating, Wheat, Winter; for plant injury at 62 g/ha: 62 g ai/ha; for plant injury at 125 g/ha: 125 g ai/ha
# Outline: as §1
# spring wheat = experiment: Test D postemergence; type: in vivo, Triticum aestivum; conditions: Triticum aestivum, post-emergence; for plant injury at 16 g/ha: 16 g ai/ha, scale 0-100, read-out: Plant response rating, Wheat, Spring; for plant injury at 31 g/ha: 31 g ai/ha; for plant injury at 31 g/ha / plant injury at 62 g/ha / plant injury at 125 g/ha: scale 0 to 100 (0 no effect, 100 complete control), read-out: Plant response rating, Wheat, Spring; for plant injury at 62 g/ha: 62 g ai/ha; for plant injury at 125 g/ha: 125 g ai/ha
# Outline: as §1
# [3] = scale 0-100, read-out: Plant response rating, Field Violet
smiles,measurement,setting,value
"FC(F)(F)c1cn(-c2ccccc2Oc2ncc(Cl)cn2)nn1 [Compound 166, 5-chloro-2-[2-[4-(trifluoromethyl)-1H-1,2,3-triazol-1-yl]phenoxy]pyrimidine]",pest or weed control at 16 g/ha,kochia,35%
same,pest or weed control at 31 g/ha,kochia,65%
same,pest or weed control at 62 g/ha,kochia,95%
same,pest or weed control at 125 g/ha,kochia,100%
same,pest or weed control at 16 g/ha,chamomile [1],5%
same,pest or weed control at 31 g/ha,chamomile [1],5%
same,pest or weed control at 62 g/ha,chamomile [1],10%
same,pest or weed control at 125 g/ha,chamomile [1],15%
same,pest or weed control at 16 g/ha,green foxtail,10%
same,pest or weed control at 31 g/ha,green foxtail,15%
same,pest or weed control at 62 g/ha,green foxtail,20%
same,pest or weed control at 125 g/ha,green foxtail,35%
same,pest or weed control at 16 g/ha,windgrass,50%
same,pest or weed control at 31 g/ha,windgrass,75%
same,pest or weed control at 62 g/ha,windgrass,100%
same,pest or weed control at 125 g/ha,windgrass,100%
same,pest or weed control at 16 g/ha,field poppy,100%
same,pest or weed control at 31 g/ha,field poppy,100%
same,pest or weed control at 62 g/ha,field poppy,100%
same,pest or weed control at 125 g/ha,field poppy,100%
same,pest or weed control at 16 g/ha,chamomile [2],5%
same,pest or weed control at 31 g/ha,chamomile [2],25%
same,pest or weed control at 62 g/ha,chamomile [2],50%
same,pest or weed control at 125 g/ha,chamomile [2],55%
same,pest or weed control at 16 g/ha,field violet,70%
same,pest or weed control at 31 g/ha,"field violet; 31 g ai/ha, scale 0-100, read-out: Plant response rating, Field Violet",100%
same,pest or weed control at 62 g/ha,field violet; [3],100%
same,pest or weed control at 125 g/ha,field violet; [3],100%
same,pest or weed control at 16 g/ha,galium,65%
same,pest or weed control at 31 g/ha,galium,80%
same,pest or weed control at 62 g/ha,galium,100%
same,pest or weed control at 125 g/ha,galium,100%
same,pest or weed control at 16 g/ha,wild oat,0%
same,pest or weed control at 31 g/ha,wild oat,30%
same,pest or weed control at 62 g/ha,wild oat,55%
same,pest or weed control at 125 g/ha,wild oat,75%
same,plant injury at 16 g/ha,winter wheat,5%
same,plant injury at 31 g/ha,winter wheat,15%
same,plant injury at 62 g/ha,winter wheat,30%
same,plant injury at 125 g/ha,winter wheat,40%
same,plant injury at 16 g/ha,spring wheat,5%
same,plant injury at 31 g/ha,spring wheat,10%
same,plant injury at 62 g/ha,spring wheat,25%
same,plant injury at 125 g/ha,spring wheat,35%
"Fc1cccc(Oc2ncc(Cl)cn2)c1-n1cc(Br)cn1 [Compound 178, 2-[2-(4-bromo-1H-pyrazol-1-yl)-3-fluorophenoxy]-5-chloropyrimidine]",pest or weed control at 16 g/ha,kochia,0%
same,pest or weed control at 31 g/ha,kochia,35%
same,pest or weed control at 62 g/ha,kochia,85%
same,pest or weed control at 125 g/ha,kochia,100%
same,pest or weed control at 16 g/ha,chamomile [1],0%
same,pest or weed control at 31 g/ha,chamomile [1],0%
same,pest or weed control at 62 g/ha,chamomile [1],5%
same,pest or weed control at 125 g/ha,chamomile [1],5%
same,pest or weed control at 16 g/ha,green foxtail,15%
same,pest or weed control at 31 g/ha,green foxtail,20%
same,pest or weed control at 62 g/ha,green foxtail,30%
same,pest or weed control at 125 g/ha,green foxtail,35%
same,pest or weed control at 16 g/ha,windgrass,75%
same,pest or weed control at 31 g/ha,windgrass,75%
same,pest or weed control at 62 g/ha,windgrass,70%
same,pest or weed control at 125 g/ha,windgrass,95%
same,pest or weed control at 16 g/ha,field poppy,20%
same,pest or weed control at 31 g/ha,field poppy,70%
same,pest or weed control at 62 g/ha,field poppy,85%
same,pest or weed control at 125 g/ha,field poppy,85%
same,pest or weed control at 16 g/ha,chamomile [2],0%
same,pest or weed control at 31 g/ha,chamomile [2],70%
same,pest or weed control at 62 g/ha,chamomile [2],55%
same,pest or weed control at 125 g/ha,chamomile [2],60%
same,pest or weed control at 16 g/ha,field violet,20%
same,pest or weed control at 62 g/ha,field violet; [3],90%
same,pest or weed control at 125 g/ha,field violet; [3],100%
same,pest or weed control at 16 g/ha,galium,10%
same,pest or weed control at 31 g/ha,galium,30%
same,pest or weed control at 62 g/ha,galium,45%
same,pest or weed control at 125 g/ha,galium,60%
same,pest or weed control at 16 g/ha,wild oat,0%
same,pest or weed control at 31 g/ha,wild oat,0%
same,pest or weed control at 62 g/ha,wild oat,10%
same,pest or weed control at 125 g/ha,wild oat,25%
same,plant injury at 16 g/ha,winter wheat,0%
same,plant injury at 31 g/ha,winter wheat,0%
same,plant injury at 62 g/ha,winter wheat,0%
same,plant injury at 125 g/ha,winter wheat,10%
same,plant injury at 16 g/ha,spring wheat,0%
same,plant injury at 31 g/ha,spring wheat,0%
same,plant injury at 62 g/ha,spring wheat,0%
same,plant injury at 125 g/ha,spring wheat,5%
